Drawing on patent US7683061B2, “Triazine dimers for the treatment of autoimmune diseases” (ProMetic BioSciences Inc., priority 2003, dated 2010), this text covers IC50 for 16 compounds.

The structures appear in SMILES notation.

The first assay has as its target T1, Fc portion of human IgG (binding of protein A to human IgG).
T1 construct: fused on or other part: Horseradish peroxidase chemically conjugated to the IgG (HRP-IgG)
The assay is described as follows: Competitive protein A binding ELISA. The conditions noted are these: Table 1; PBS-20% DMSO; read-out: IC50 (μM): Assay in PBS-20% DMSO. How it is done: As described above, this assay evaluates the ability of the exemplified compounds to mimic protein A. Such compounds can bind to the Fc portion of human IgG as ascertained by the inhibition of binding of protein A to human IgG. The competitive protein A binding ELISA assay was performed on a 96-well plate Maxisorp surface to enhance the binding of protein A to the bottom of the plate. The wells were coated with 100 μL of protein A (0.8 μg) and incubated overnight at 4° C. After incubation, unbound protein A was removed by three washes with phosphate buffer saline (PBS). The plate was then incubated with 100 μL/well of a 2% solution of bovine serum albumin (BSA) for 1 h at 37° C. to block non specific protein binding. After incubation, the plate was washed to times with PBS. 50 μL of compound or protein A, diluted in PBS or PBS-20% DMSO at appropriate concentration, were added to the wells followed by addition of 50 μL of peroxidase-conjugated human IgG (HRP-IgG). After 1 h incubation at 37° C., the plate was washed free times with PBS to remove unbound HRP-IgG. Bound HRP-IgG was detected by incubation with 100 μL of 2,2′-Azino-di[3-ethylbenzothiazoline sulfonate]diammonium salt crystals (ABTS) solution for 20 min in the dark at room temperature. The plate was then read at 405 nm on a EL 800, universal Microplate reader (Bio-Tek). Data was analyzed in Microsoft Excel and the concentration of compound which inhibits 50% binding of protein A (IC50) was calculated using Prism software.
Table 1 represents the IC50 of compounds tested in the competitive protein A binding ELISA assay, which consists of a side-by-side analysis in PBS and PBS-20% DMSO. DMSO was used to increase the solubility of some of the compounds.
On the technique in general: An ELISA detects its analyte on a solid surface through an enzyme-linked reagent.
The term IC50 denotes the midpoint of a concentration-inhibition curve. With `Oc1ccc(CCNc2nc(NCc3ccccc3Nc3nc(NCCc4ccc(O)cc4)nc(Nc4ccccc4)n3)nc(Nc3ccccc3)n2)cc1` [Compound 37], the 50% inhibitory concentration (IC50) turned out to be 23 µM.

For the compound `Oc1ccc(CCNc2nc(Nc3ccccc3)nc(N[C@H](COc3nc(NCCc4ccc(O)cc4)nc(Nc4ccccc4)n3)c3ccccc3)n2)cc1` [Compound 39], the IC50 was determined as 43 µM.

Regarding `Nc1cccc(Nc2nc(N)nc(NCc3ccc(CNc4nc(N)nc(Nc5cccc(N)c5)n4)cc3)n2)c1` [Compound 41], the IC50 came to 0.02 µM.

With `Nc1cccc(Nc2nc(NCCO)nc(Nc3cccc(CNc4nc(Nc5cccc(N)c5)nc(Nc5cccc(N)c5)n4)c3)n2)c1` [Compound 43], the IC50 was determined as 0.05 µM. `Nc1cccc(Nc2nc(NCCO)nc(N3CCN(c4nc(Nc5cccc(N)c5)nc(Nc5cccc(N)c5)n4)CC3)n2)c1` [Compound 44]: the IC50 amounted to 0.04 µM. The same measure, in the same setting: the value for `Nc1cccc(Nc2nc(N)nc(Nc3cccc(Nc4nc(NCCO)nc(Nc5cccc(N)c5)n4)c3)n2)c1` [Compound 46] was 0.8 µM; that for `Nc1cccc(Nc2nc(NCCO)nc(Nc3ccc(Nc4nc(NCCO)nc(Nc5cccc(N)c5)n4)cc3)n2)c1` [Compound 47] was 0.2 µM. For the compound `Nc1ccc(CNc2nc(NCc3ccc(CNc4nc(NCc5ccc(N)cc5)nc(Nc5cccc(N)c5)n4)cc3)nc(Nc3cccc(N)c3)n2)cc1` [Compound 48], the half-maximal inhibitory concentration (IC50) was found to be 0.05 µM. Turning to `Nc1cccc(Nc2nc(NCCO)nc(Nc3cccc(Nc4nc(NCCO)nc(Nc5cccc(N)c5)n4)c3)n2)c1` [Compound 49], the IC50 was 0.5 µM. On to `Nc1cccc(Nc2nc(Nc3cccc(Nc4nc(Nc5cccc(N)c5)nc(NC(CO)CO)n4)c3)nc(NC(CO)CO)n2)c1` [Compound 50], for which the IC50 amounted to 1 µM. For the compound `Nc1cccc(Nc2nc(N)nc(Nc3cccc(Nc4nc(N)nc(Nc5cccc(N)c5)n4)c3)n2)c1` [Compound 51], the IC50 worked out at 6 µM.

The assay is the same for the next values; noted with them: Table 1; PBS; read-out: IC50 (μM): Assay in PBS.
As to `Nc1cccc(Nc2nc(N)nc(NCc3ccc(CNc4nc(N)nc(Nc5cccc(N)c5)n4)cc3)n2)c1` [Compound 41], the IC50 came to 0.03 µM.

As for `Nc1cccc(Nc2nc(NCCO)nc(Nc3cccc(CNc4nc(Nc5cccc(N)c5)nc(Nc5cccc(N)c5)n4)c3)n2)c1` [Compound 43], the IC50 stood at 0.08 µM. The same measure, in the same setting: the value for `Nc1cccc(Nc2nc(NCCO)nc(N3CCN(c4nc(Nc5cccc(N)c5)nc(Nc5cccc(N)c5)n4)CC3)n2)c1` [Compound 44] was 0.09 µM; that for `Nc1cccc(Nc2nc(N)nc(Nc3cccc(Nc4nc(NCCO)nc(Nc5cccc(N)c5)n4)c3)n2)c1` [Compound 46] was 0.2 µM; that for `Nc1cccc(Nc2nc(NCCO)nc(Nc3ccc(Nc4nc(NCCO)nc(Nc5cccc(N)c5)n4)cc3)n2)c1` [Compound 47] was 0.2 µM.

As for `Nc1ccc(CNc2nc(NCc3ccc(CNc4nc(NCc5ccc(N)cc5)nc(Nc5cccc(N)c5)n4)cc3)nc(Nc3cccc(N)c3)n2)cc1` [Compound 48], the IC50 was 0.2 µM. Turning to `Nc1cccc(Nc2nc(NCCO)nc(Nc3cccc(Nc4nc(NCCO)nc(Nc5cccc(N)c5)n4)c3)n2)c1` [Compound 49], the IC50 came to 0.3 µM. In the case of `Nc1cccc(Nc2nc(Nc3cccc(Nc4nc(Nc5cccc(N)c5)nc(NC(CO)CO)n4)c3)nc(NC(CO)CO)n2)c1` [Compound 50], the IC50 came out at 0.4 µM. `Nc1cccc(Nc2nc(N)nc(Nc3cccc(Nc4nc(N)nc(Nc5cccc(N)c5)n4)c3)n2)c1` [Compound 51]: the IC50 was found to be 0.6 µM.

Another assay relates to TNFα production, J774A-1 cells. The experiment in a line: LPS-induced TNFα production in J774A-1 cells (ELISA). As to conditions: Mus musculus, J774.A1, 24 h, read-out: IC50 (μM), inhibition of TNFα released by LPS induction. In kind it is cell-based. As for the experimental part:
Effect of compounds on TNFα production was measured by ELISA using J774-1 cells stimulated by LPS. J774-1 cells were cultured in the presence or absence of LPS and compound. Cells were cultured at 37° C. for 24 h and thereafter the supernatants were collected for the determination of the concentration of TNFα by ELISA as recommended by the manufacturer (BD Biosciences). Data was analyzed in Microsoft Excel and the concentration of compound which inhibits 50% of TNFα production (IC50) was calculated using Prism software.
Regarding `OCCNc1nc(NCCc2ccc(Oc3nc(NCCc4ccc(O)cc4)nc(Nc4ccccc4)n3)cc2)nc(Nc2ccccc2)n1` [Compound 21], the IC50 came out at 4.8 µM. For the compound `COc1ccccc1Nc1nc(NCCN)nc(NCCc2ccc(Nc3nc(NCCc4ccc(O)cc4)nc(Nc4ccccc4)n3)cc2)n1` [Compound 22], the IC50 was 62.1 µM. For the compound `COc1ccccc1Nc1nc(NCCCCN)nc(NCCc2ccc(Oc3nc(NCCc4ccc(O)cc4)nc(Nc4ccccc4)n3)cc2)n1` [Compound 23], the IC50 was 16.5 µM.

In the case of `NCCCNc1nc(NCCc2ccc(Nc3nc(NCCc4ccc(O)cc4)nc(Nc4ccccc4)n3)cc2)nc(Nc2ccccc2)n1` [Compound 24], the IC50 was 11.5 µM. Consider `Oc1ccc(CCNc2nc(Nc3ccccc3)nc(Nc3cccc(Nc4nc(NCCc5ccc(O)cc5)nc(Nc5ccccc5)n4)c3)n2)cc1` [Compound 38], for which the IC50 turned out to be 9.5 µM.
